We go through 13 molecules from patent US7674825B2, “Dicarboxylic acid derivatives with pharmaceutical properties” (Bayer Aktiengesellschaft, priority 2002, dated 2010).

The subject of one assay is arteria saphena. Nature of the assay: Vasorelaxant action in vitro (phenylephrine-contracted arteria saphena rings). To be noted: Oryctolagus cuniculus; rabbit arteria saphena rings, contraction induced by phenylephrine; concentration reducing contraction to 50%. The class given is cell-based, Rabbits. As for the experimental part:
Rabbits are anesthetized by intravenous injection of thiopental sodium […] (about 50 mg/kg) and exsanguinated. The arteria saphena is removed and divided into 3 mm wide rings. The rings are individually mounted on in each case one triangular pair of hooks, open at the end, made of 0.3 mm strong special wire (Remanium®). Under a pretension, each ring is transferred into 5 ml organ baths containing a warm, carbogen-aerated Krebs-Henseleit solution at 37° C. having the following composition (mM): NaCl: 119; KCl: 4.8; CaCl2×2 H2O: 1; MgSO4×7 H2O: 1.4; KH2PO4: 1.2; NaHCO3: 25; glucose: 10; bovine serum albumin: 0.001%. The contractility is detected using Statham UC2 cells, amplified and digitalized by means of A/D converters (DAS-1802 HC, Keithley Instruments Munich), and recorded in parallel on linear recorders. Contractions are induced by addition of phenylephrine.
After several (in general 4) control cycles, the substance to be investigated is added in each further passage in increasing dosage, and the height of the contraction achieved under the influence of the test substance is compared with the height of the contraction achieved in the last preliminary passage. From this, the concentration which is necessary in order to reduce the contraction achieved in the preliminary control to 50% (IC50) is calculated. The standard administration volume is 5 μl. The proportion of DMSO in the bath solution corresponds to 0.1%.

The target in another assay is T1, Heme-free sGC (Rattus norvegicus, UniProt P20595).
T1 construct: made in house; host or cells: Sf9 insect cells (baculovirus)
Nature of the assay: Stimulation of recombinant soluble guanylate cyclase (sGC) in vitro, heme-free enzyme. The class given is biochemical. Conditions: heme-free (Tween 20 0.5%). Here is the method: (§1) The investigations on the stimulation of recombinant soluble guanylate cyclase (sGC) and the compounds according to the invention with and without sodium nitroprusside and with and without the heme-dependent sGC inhibitor 1H-1,2,4-oxadiazole-(4,3a)-quinoxalin-1-one (ODQ) were carried out by the method described in detail in the following literature reference: M. Hoenicka, E. M. Becker, H. Apeler, T. Sirichoke, H. Schroeder, R. Gerzer and J.-P. Stasch: Purified soluble guanylyl cyclase expressed in a baculovirus/Sf9 system: stimulation by YC-1, nitric oxide, and carbon oxide. J. Mol. Med. 77 (1999): 14-23.
Heme-free guanylate cyclase was obtained by adding Tween 20 to the sample buffer (final concentration 0.5%).
(§2) Activation of sGC by a test substance is stated as n-fold stimulation of basal activity.

The next assay has as its target T2, Heme-containing sGC (Rattus norvegicus, UniProt P20595).
T2 construct: made in house; host or cells: Sf9 insect cells (baculovirus)
Nature of the assay: Stimulation of recombinant soluble guanylate cyclase (sGC) in vitro, heme-containing enzyme. To be noted: for Stimulation (n-fold) Heme-containing sGC Basal: n-fold stimulation of basal activity. The class given is biochemical. As for the experimental part: as §1, §2

T1 sequence (P19686 whole entry partner): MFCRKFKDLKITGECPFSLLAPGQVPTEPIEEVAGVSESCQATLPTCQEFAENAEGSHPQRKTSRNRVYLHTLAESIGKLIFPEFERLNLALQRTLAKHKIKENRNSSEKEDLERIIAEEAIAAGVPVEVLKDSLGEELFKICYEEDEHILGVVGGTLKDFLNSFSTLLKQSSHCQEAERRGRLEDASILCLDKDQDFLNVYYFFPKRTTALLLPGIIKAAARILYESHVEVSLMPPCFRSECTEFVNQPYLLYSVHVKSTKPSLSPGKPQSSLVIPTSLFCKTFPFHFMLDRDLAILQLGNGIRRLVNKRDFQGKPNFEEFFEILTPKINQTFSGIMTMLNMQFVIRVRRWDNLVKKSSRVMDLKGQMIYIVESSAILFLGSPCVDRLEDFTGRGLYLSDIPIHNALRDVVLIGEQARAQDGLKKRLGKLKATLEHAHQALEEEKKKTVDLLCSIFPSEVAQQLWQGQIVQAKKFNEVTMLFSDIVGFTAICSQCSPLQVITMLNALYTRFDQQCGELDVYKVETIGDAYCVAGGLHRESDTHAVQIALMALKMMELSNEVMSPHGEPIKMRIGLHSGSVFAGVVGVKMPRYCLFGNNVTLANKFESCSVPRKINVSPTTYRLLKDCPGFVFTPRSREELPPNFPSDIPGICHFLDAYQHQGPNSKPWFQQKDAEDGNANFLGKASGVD
T1 sequence (P20595 whole entry): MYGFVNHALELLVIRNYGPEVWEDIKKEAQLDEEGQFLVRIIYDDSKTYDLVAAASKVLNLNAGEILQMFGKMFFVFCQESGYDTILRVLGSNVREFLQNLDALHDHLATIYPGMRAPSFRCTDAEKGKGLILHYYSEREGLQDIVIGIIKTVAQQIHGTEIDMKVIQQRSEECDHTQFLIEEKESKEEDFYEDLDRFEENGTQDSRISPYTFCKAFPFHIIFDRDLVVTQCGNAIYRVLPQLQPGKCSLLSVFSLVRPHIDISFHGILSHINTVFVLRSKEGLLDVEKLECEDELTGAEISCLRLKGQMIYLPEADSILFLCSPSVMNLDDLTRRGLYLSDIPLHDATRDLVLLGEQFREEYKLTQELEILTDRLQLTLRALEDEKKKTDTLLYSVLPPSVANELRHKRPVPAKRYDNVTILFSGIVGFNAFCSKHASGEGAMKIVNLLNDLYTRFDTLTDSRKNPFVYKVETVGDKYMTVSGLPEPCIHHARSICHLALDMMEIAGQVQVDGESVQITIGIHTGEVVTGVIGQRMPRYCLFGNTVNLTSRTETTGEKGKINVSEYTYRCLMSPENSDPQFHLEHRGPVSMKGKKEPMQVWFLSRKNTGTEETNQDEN
T2 sequence (P19686 whole entry partner): as the sequence (P19686 whole entry partner) above
T2 sequence (P20595 whole entry): as the sequence (P20595 whole entry) above

What is called IC50 is the concentration that gives 50% inhibition. The low end stands for greater potency, the high end for weaker potency. As to `O=C(O)CCCCC(/C=C/c1ccccc1OCc1ccc(-c2ccccc2)cc1)Cc1ccc(C(=O)O)cc1` (stereo not shown) [Example 26], half-maximal inhibition in the assay on arteria saphena (IC50) was put at 1.9 nM.
`CCCCCCCCOc1ccccc1/C=C/C(CCCCC(=O)O)Cc1ccc(C(=O)O)cc1` (stereo not shown) [Example 29] displayed a concentration for half-maximal inhibition (IC50) with arteria saphena of 2.5 nM.
In the case of `O=C(O)CCCCC(/C=C/c1ccccc1NCc1ccccc1)Cc1ccc(C(=O)O)cc1` (stereo not shown) [Example 30], it took 3500 nM to reach half-maximal inhibition with arteria saphena (IC50).
As to `O=C(O)CCCCC(/C=C/c1cccnc1OCCCCCc1ccccc1)Cc1ccc(C(=O)O)cc1` (stereo not shown) [Example 34], half-maximal inhibition with arteria saphena (IC50) required 170 nM.
In the assay on arteria saphena, `O=C(O)CCCCC(/C=C/c1ccccc1OCc1ccc(C2CCCCC2)cc1)Cc1ccc(C(=O)O)cc1` (stereo not shown) [Example 72] returned a half-maximal inhibitory concentration (IC50) of 0.2 nM.
In the assay on arteria saphena, `Cc1cc(COc2ccccc2/C=C/C(CCCCC(=O)O)Cc2ccc(C(=O)O)cc2)nn1-c1cc(Cl)cc(Cl)c1` (stereo not shown) [Example 76] displayed an IC50 of 5.2 nM. This IC50 lies about 26-fold higher than the previous one.
Regarding `O=C(O)CCCCC(/C=C/c1ccccc1OCc1cc2ccccc2s1)Cc1ccc(C(=O)O)cc1` (stereo not shown) [Example 78], the IC50 in the assay with arteria saphena was 5.8 nM. The IC50 values of the last two molecules are within 1.5-fold of each other.
As for `O=C(O)CCCCC(/C=C/c1ccccc1OCc1ccc(-c2csc(C(F)(F)F)n2)cc1)Cc1ccc(C(=O)O)cc1` (stereo not shown) [Example 81], half-maximal inhibition in the assay on arteria saphena (IC50) was put at 3.9 nM.
With `O=C(O)CCCC[C@@H](CCc1ccccc1OCc1ccc(C2CCCCC2)cc1)Cc1ccc(C(=O)O)cc1` [Example 93], the “Stimulation (n-fold) Heme-free sGC +ODQ (10 μM)” value at Heme-free sGC (0.1 μM test compound) is given as 392 n-fold; at Heme-free sGC (1.0 μM test compound), 435 n-fold; on Heme-free sGC (10 μM test compound) it was 500 n-fold. The “Stimulation (n-fold) Heme-free sGC Basal” value at Heme-free sGC (0.1 μM test compound) worked out at 436 n-fold; on Heme-free sGC (1.0 μM test compound) it was 476 n-fold; at Heme-free sGC (10 μM test compound), 541 n-fold. The results for the “Stimulation (n-fold) Heme-containing sGC +ODQ (10 μM)” value at Heme-containing sGC (0.1 μM test compound), at Heme-containing sGC (1.0 μM test compound) and at Heme-containing sGC were 84 n-fold, 151 n-fold and 178 n-fold, respectively. Also, the “Stimulation (n-fold) Heme-containing sGC +SNP (0.1 μM)” value was found to be 45 n-fold on Heme-containing sGC (0.1 μM test compound), 44 n-fold on Heme-containing sGC (1.0 μM test compound) and 54 n-fold at Heme-containing sGC (10 μM test compound). Moreover, the “Stimulation (n-fold) Heme-containing sGC Basal” value on Heme-containing sGC (0.1 μM test compound) is reported as 17 n-fold; on Heme-containing sGC (1.0 μM test compound) it was 23 n-fold; on Heme-containing sGC (10 μM test compound) it was 33 n-fold. Moreover, the 50% inhibitory concentration (IC50) with arteria saphena was determined as 0.2 nM.
`O=C(O)CCCCC(/C=C/c1ccccc1OCCCCCN1CCCC1)Cc1ccc(C(=O)O)cc1` (stereo not shown) [Example 116] displayed an IC50 with arteria saphena of 190 nM.
`O=C(O)CCCCC(COCc1cccc(Oc2ccccc2F)c1)Cc1ccc(C(=O)O)cc1` (stereo not shown) [Example 132] showed an IC50 in the assay with arteria saphena of 220 nM.
As for `O=C(O)CCCCC(CNc1ccccc1OCCCCCc1ccccc1)Cc1ccc(C(=O)O)cc1` (stereo not shown) [Example 150], the IC50 in the assay on arteria saphena stood at 30 nM.
For `O=C(O)CSCCC(/C=C/c1ccccc1OCCCCCc1ccccc1)Cc1ccc(C(=O)O)cc1` (stereo not shown) [Example 164], in the assay with arteria saphena, inhibition was half-maximal at 580 nM (IC50).
